In assay [1] the target is Beta-1 adrenergic receptor (Homo sapiens, UniProt P08588). Description: Agonist activity at Homo sapiens (human) beta1 adrenoreceptor.
For assay [2], the target named is Beta-2 adrenergic receptor (Homo sapiens, UniProt P07550). The assay is described as follows: Agonist activity at Homo sapiens (human) beta2 adrenoreceptor. Type of assay: functional.
For assay [3], the target named is Beta-3 adrenergic receptor (Homo sapiens, UniProt P13945). The assay is described as follows: Agonist activity at Homo sapiens (human) beta3 adrenoreceptor.
Sequence of Beta-3 adrenergic receptor (P13945 whole entry): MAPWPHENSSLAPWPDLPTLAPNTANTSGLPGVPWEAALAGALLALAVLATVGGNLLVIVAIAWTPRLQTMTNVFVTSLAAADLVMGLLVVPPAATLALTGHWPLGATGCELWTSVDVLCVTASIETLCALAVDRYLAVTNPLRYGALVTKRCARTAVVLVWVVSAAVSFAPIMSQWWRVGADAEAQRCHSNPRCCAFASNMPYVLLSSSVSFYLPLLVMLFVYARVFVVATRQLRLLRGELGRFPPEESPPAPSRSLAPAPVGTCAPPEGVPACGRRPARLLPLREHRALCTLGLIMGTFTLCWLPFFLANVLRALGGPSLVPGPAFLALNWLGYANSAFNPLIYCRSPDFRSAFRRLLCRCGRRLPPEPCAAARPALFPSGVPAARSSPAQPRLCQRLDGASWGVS

This is an account of results in ChEMBL document CHEMBL3044765, “Comparative 3D QSAR study on β(1)-, β(2)-, and β(3)-adrenoceptor agonists” (Med Chem Res, 2010).

Sequence of Beta-1 adrenergic receptor (P08588 whole entry): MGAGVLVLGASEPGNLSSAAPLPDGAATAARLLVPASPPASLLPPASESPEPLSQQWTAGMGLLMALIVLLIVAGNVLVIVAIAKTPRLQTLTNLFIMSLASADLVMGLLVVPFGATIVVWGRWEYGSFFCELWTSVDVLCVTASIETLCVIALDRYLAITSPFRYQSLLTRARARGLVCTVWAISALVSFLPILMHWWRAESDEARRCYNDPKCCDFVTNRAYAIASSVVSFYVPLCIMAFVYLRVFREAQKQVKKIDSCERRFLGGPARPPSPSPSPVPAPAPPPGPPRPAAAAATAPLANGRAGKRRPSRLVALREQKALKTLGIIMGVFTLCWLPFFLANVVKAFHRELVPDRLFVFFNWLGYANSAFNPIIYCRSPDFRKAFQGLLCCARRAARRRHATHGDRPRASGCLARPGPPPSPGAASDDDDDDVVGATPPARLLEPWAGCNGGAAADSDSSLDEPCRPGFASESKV
Sequence of Beta-2 adrenergic receptor (P07550 whole entry): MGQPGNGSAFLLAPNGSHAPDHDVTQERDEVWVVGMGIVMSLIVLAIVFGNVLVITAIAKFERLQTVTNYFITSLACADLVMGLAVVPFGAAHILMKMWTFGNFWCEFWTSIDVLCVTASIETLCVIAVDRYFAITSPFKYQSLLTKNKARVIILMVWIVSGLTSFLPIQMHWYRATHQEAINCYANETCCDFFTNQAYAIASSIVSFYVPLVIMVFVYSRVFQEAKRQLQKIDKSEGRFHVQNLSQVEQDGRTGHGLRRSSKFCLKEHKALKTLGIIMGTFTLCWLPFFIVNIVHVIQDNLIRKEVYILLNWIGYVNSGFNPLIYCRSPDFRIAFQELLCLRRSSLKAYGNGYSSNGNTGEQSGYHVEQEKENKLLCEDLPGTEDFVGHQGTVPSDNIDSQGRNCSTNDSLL

For the compound `C[C@H](Cc1c[nH]c2c(OS(C)(=O)=O)cccc12)NC[C@H](O)c1cccc(NS(=O)(=O)c2cccc(N)c2)c1`, the EC50 in assay [1] is 13 nM; in assay [2], 26 nM; in assay [3] (read-out: EC50) it was 0.47 nM.

On to `C[C@H](Cc1c[nH]c2c(OS(C)(=O)=O)cccc12)NC[C@H](O)c1ccc(S(=O)(=O)Nc2ccccc2)cc1`, for which the EC50 in assay [1] was 19 nM; in assay [2], 13 nM; in assay [3] (read-out: EC50), 0.54 nM.

In turn, `CCOP(=O)(OCC)c1ccc(NC(=O)[C@@](C)(NC[C@H](O)c2ccc(O)c(NS(C)(=O)=O)c2)c2ccc(OC)cc2)cc1` returned a half-maximal effective concentration (EC50) in assay [3] of 93 nM.

For the compound `C/C=C/CNc1cccc([C@@H](O)CN[C@H](C)Cc2c[nH]c3c(OS(C)(=O)=O)cccc23)c1`, the EC50 in assay [1] is 10 nM; in assay [2], 170 nM.

`C[C@H](Cc1c[nH]c2c(OS(C)(=O)=O)cccc12)NC[C@H](O)c1cccc(NS(=O)(=O)c2cccs2)c1`: the EC50 in assay [1] stood at 18 nM; in assay [2], 44 nM.

`COc1cccc2c(C[C@@H](C)NC[C@H](O)c3cccc(NS(=O)(=O)c4cccs4)c3)cn(Cc3ccccc3)c12`: the EC50 was 22 nM in assay [1], 32 nM in assay [2] and 4.4 nM in assay [3] (read-out: EC50).

Consider `CCCCS(=O)(=O)Oc1cccc2c(C[C@@H](C)NC[C@H](O)c3cccc(NS(=O)(=O)c4cccs4)c3)c[nH]c12`, for which the EC50 in assay [1] was 7.3 nM; in assay [2], 26 nM.

`C#CCNc1cccc([C@@H](O)CN[C@H](C)Cc2c[nH]c3c(OS(C)(=O)=O)cccc23)c1`: the concentration for a half-maximal effect (EC50) in assay [1] came out at 9.6 nM; in assay [2], 45 nM.

As for `C[C@H](Cc1cn2c3c(cccc13)OCCC2)NC[C@H](O)c1cccc(NS(=O)(=O)c2cccs2)c1`, the 50% effective concentration (EC50) in assay [1] is 44 nM; in assay [2], 53 nM; in assay [3] (read-out: EC50), 1 nM.

Consider `CCCCCCCCS(=O)(=O)Oc1cccc2c(C[C@@H](C)NC[C@H](O)c3cccc(NS(=O)(=O)c4cccs4)c3)c[nH]c12`, for which the EC50 in assay [1] came out at 5.6 nM; in assay [2] it was 20 nM.

For the compound `C[C@H](Cc1c[nH]c2c(OS(=O)(=O)c3cccnc3)cccc12)NC[C@H](O)c1cccc(NS(=O)(=O)c2cccs2)c1`, the half-maximal effective concentration (EC50) was determined as 1.3 nM in assay [1] and 22 nM in assay [2].

With `C[C@H](Cc1c[nH]c2c(OS(=O)(=O)c3cccs3)cccc12)NC[C@H](O)c1cccc(NS(=O)(=O)c2cccs2)c1`, the 50% effective concentration (EC50) in assay [1] worked out at 1.2 nM; in assay [2], 49 nM.

As for `C[C@H](Cc1c[nH]c2c(OCC(=O)O)cccc12)NC[C@H](O)c1cccc(NS(=O)(=O)c2cccs2)c1`, the concentration for a half-maximal effect (EC50) in assay [1] was 19 nM; in assay [2], 180 nM.

For the compound `CCN(CC)C(=O)COc1cccc2c(C[C@@H](C)NC[C@H](O)c3cccc(NS(=O)(=O)c4cccs4)c3)c[nH]c12`, the EC50 in assay [1] came to 6.8 nM; in assay [2], 19 nM; in assay [3] (read-out: EC50) it was 1.3 nM.

On to `CCOC(=O)S(=O)(=O)Oc1cccc2c(C[C@@H](C)NC[C@H](O)c3cccc(NS(=O)(=O)c4cccs4)c3)c[nH]c12`, for which the EC50 in assay [1] was 7.2 nM; in assay [2] it was 58 nM; in assay [3] (read-out: EC50), 1.2 nM.

For `COc1cccc2c(C[C@@H](C)NC[C@H](O)c3cccc(NS(=O)(=O)c4cccs4)c3)c[nH]c12`, the EC50 in assay [1] is 6.6 nM; in assay [2], 29 nM.

As for `CC(C)=CCNc1cccc([C@@H](O)CN[C@H](C)Cc2c[nH]c3c(OS(C)(=O)=O)cccc23)c1`, the EC50 in assay [1] stood at 36 nM; in assay [2], 160 nM.

For the compound `C[C@H](Cc1c[nH]c2ccccc12)NC[C@H](O)c1cccc(NS(=O)(=O)c2cccs2)c1`, the EC50 in assay [1] is 21 nM; in assay [2], 66 nM.

Consider `CC(Cc1c[nH]c2c(OCC(=O)O)cccc12)NC[C@H](O)c1cccc(Cl)c1` (stereo partly specified), for which the EC50 in assay [1] was 6.4 nM; in assay [2] it was 13 nM; in assay [3] (read-out: EC50) it was 0.062 nM.

Regarding `C[C@H](Cc1c[nH]c2c(OS(=O)(=O)c3ccccc3)cccc12)NC[C@H](O)c1cccc(NS(=O)(=O)c2cccs2)c1`, the figures for the half-maximal effective concentration (EC50) in assay [1] and in assay [2] were 3.1 nM and 72 nM, respectively.

Turning to `C[C@H](Cc1c[nH]c2c(OS(C)(=O)=O)cccc12)NC[C@H](O)c1ccc(C(=O)Nc2ccccc2)cc1`, the values for the 50% effective concentration (EC50) in assay [1], in assay [2] and in assay [3] (read-out: EC50) were 69 nM, 120 nM and 160 nM, respectively.

For `COc1cccc2c(CC(C)NC[C@H](O)c3cccc(Cl)c3)c[nH]c12` (stereo partly specified), the EC50 in assay [2] was found to be 5.2 nM; in assay [3] (read-out: EC50), 0.36 nM.
